For data set [1] the following is noted: cited from earlier work.
Data set [2] concerns potassium ion channel coded by hERG. The settings on record: compound concentration as high as 300 µM; cited from earlier work.
For data set [3] the following is noted: human liver microsomes; cited from earlier work.
In data set [4] the test system is P. falciparum (erythrocytic stage, K1 strain). Conditions: relative to the standard (chloroquine).
Data set [5] has as its system L. donovani (axenic amastigote stage, MHOM-ET-67/L82). Conditions: relative to 1d.

Regarding `CCc1ccc(C(=O)NC(=O)c2ccccc2O)cc1` [Compound 1a, N-(4-Ethylbenzoyl)-2-hydroxybenzamide], in data set [1], the “protein binding in human plasma” value is 99.9%. For the same molecule, in data set [2], the hERG inhibition entry is “not inhibited”. Also, in data set [3], the “intrinsic clearance / metabolism rate in HLM” value is 282 µL/min/mg proteins.
With `O=C(NC(=O)c1ccccc1O)c1ccc2ccccc2c1` [Compound 1t, N-(2-Hydroxybenzoyl)-2-naphthamide], the “fold less active than the standard against malaria parasites” value in data set [4] stood at 2 fold.
As to `O=C(NC(=O)c1ccccc1O)c1ccc(C(F)(F)F)cc1` [Compound 1g, 2-Hydroxy-N-(4-(trifluoromethyl)benzoyl)benzamide], in data set [5], the “times less potent than 1d against L. donovani” value is given as 4 times.
On to `OC(Cn1cncn1)(Cn1cncn1)c1ccc(F)cc1F` [fluconazole, reference compound], for which the “protein binding in human plasma” value in data set [1] is reported as 23.7%.
